Data on 16 compounds can be found in patent publication US20220340598A1, “PYRAZOLOPYRIDINONE COMPOUNDS” (Janssen Pharmaceutica NV, priority 2017, published 2022).

A word on the IC50: it is the concentration needed to halve the response being measured.

Molecules are shown by their SMILES.

For assay [1], the target named is T1, NIH/3T3 cells overexpressing FGFR3 V555M-TACC3 fusion protein (Homo sapiens, UniProt P22607, V555M, cells depend on it).
T1 construct: fused on or other part: Q9Y6A5 (Transforming acidic coiled-coil-containing protein 3)
In words: NIH/3T3 FGFR3 V555M-TACC3 cell proliferation assay. The assay is classed as cell-based. The note with it: 72-hr incubation, CellTiter Glo; read-out: NIH/3T3 FGFR3 V555M-TACC3 CTG (IC50). The method, then: NIH/3T3 FGFR3 V555M-TACC3 Cell Proliferation Assay
(§1) In day 1, 90 μL of cell suspension (NIH/3T3 cells overexpressing FGFR3 V555M-TACC3 fusion protein) (total 30,000 cells per well in growth medium (DMEM containing 1% Glutamax, 10% FBS and 1% Pen/Strep)) was seeded in a 96-well plate and then incubated overnight at 37° C. and 5% CO2. In day 2, 10 μL of growth medium containing 10-fold stock solution of testing compound was added into cell cultures (9 dose points with 4× serial dilution, starting with 10 μM, 0.1% DMSO final). After 72-hr incubation at 37° C. and 5% CO2, in day 5 a volume of 50 μL CellTiter Glo (CTG) reagent was added into cell-containing 96-well plate and the plate was incubated at room temperature for 10 minutes before RLUs (relative light unit) were measured on a microplate reader with luminescence detection module. The RLU value was normalized to survival % and concentration-response curve was plotted using Prism to calculate IC50 (M), pIC50 (−log IC50) and HillSlope value.

The target of assay [2] is T2, human FGFR3 wild type enzyme (cytoplasmic domain) (Homo sapiens, UniProt P22607).
T2 construct: human FGFR3 wild type enzyme (cytoplasmic domain, from Carna Biosciences)
In words: FGFR3 wild type mobility shift assay (enzymatic assay). Type of assay: biochemical. The note with it: 75 μM ATP, 50 minutes at 30° C., Caliper EZ reader II. The method, then: FGFR3 Wild Type Mobility Shift Assay (Enzymatic Assay)
In a final reaction volume of 25 μL, 0.04 ng/μL human FGFR3 wild type enzyme (cytoplasmic domain, from Carna Biosciences) was incubated with 75 μM ATP, 1 μM FL-peptide 30 substrate and 250 nL of testing compound (1% DMSO final) in assay buffer (100 mM HEPES pH 7.4, 10 mM MgCl2, 0.003% Brij35, 1 mM DTT). After incubation for 50 minutes at 30° C. the reaction was stopped with 10 μL of 0.5M EDTA pH 8.0, and then 25 μL of reaction mixture was transferred to reading plate and measured on Caliper EZ reader II.

The target in assay [3] is T3, human FGFR3 V555M enzyme (cytoplasmic domain carrying V555M mutation) (Homo sapiens, UniProt P22607, V555M).
T3 construct: human FGFR3 V555M enzyme (cytoplasmic domain carrying V555M mutation, from Carna Biosciences)
In words: FGFR3 V555M mobility shift assay (enzymatic assay). Type of assay: biochemical. The note with it: 30 μM ATP, 45 minutes at 30° C., Caliper EZ reader II. The method, then:
FGFR3 V555M Mobility Shift Assay (Enzymatic Assay)
In a final reaction volume of 25 μL, 0.04 ng/μL human FGFR3 V555M enzyme (cytoplasmic domain carrying V555M mutation, from Carna Biosciences) was incubated with 30 μM ATP, 1 μM FL-peptide 30 substrate and 250 nL of testing compound (1% DMSO final) in assay buffer (100 mM HEPES pH 7.4, 10 mM MgCl2, 0.003% Brij35, 1 mM DTT). After incubation for 45 minutes at 30° C. the reaction was stopped with 10 μL of 0.5M EDTA pH 8.0, and then 25 μL of reaction mixture was transferred to reading plate and measured on Caliper EZ reader II.

Assay [4] addresses T4, NIH/3T3 cells overexpressing FGFR3 WT-TACC3 fusion protein (Homo sapiens, UniProt P22607).
T4 construct: fused on or other part: Q9Y6A5 (Transforming acidic coiled-coil-containing protein 3)
Kind of assay: NIH/3T3 FGFR3 WT-TACC3 cell proliferation assay. The note with it: 72-hr incubation, CellTiter Glo; read-out: NIH/3T3 FGFR3 WT-TACC3 CTG (IC50). Type of assay: cell-based. The method, then:
NIH/3T3 FGFR3 WT-TACC3 Cell Proliferation Assay
as §1, with “WT-TACC3” for “V555M-TACC3”
A general note: ATP-based viability assays read luminescence as a measure of living cells.

T4 sequence (P22607 whole entry, change not shown, the tested form may be a part): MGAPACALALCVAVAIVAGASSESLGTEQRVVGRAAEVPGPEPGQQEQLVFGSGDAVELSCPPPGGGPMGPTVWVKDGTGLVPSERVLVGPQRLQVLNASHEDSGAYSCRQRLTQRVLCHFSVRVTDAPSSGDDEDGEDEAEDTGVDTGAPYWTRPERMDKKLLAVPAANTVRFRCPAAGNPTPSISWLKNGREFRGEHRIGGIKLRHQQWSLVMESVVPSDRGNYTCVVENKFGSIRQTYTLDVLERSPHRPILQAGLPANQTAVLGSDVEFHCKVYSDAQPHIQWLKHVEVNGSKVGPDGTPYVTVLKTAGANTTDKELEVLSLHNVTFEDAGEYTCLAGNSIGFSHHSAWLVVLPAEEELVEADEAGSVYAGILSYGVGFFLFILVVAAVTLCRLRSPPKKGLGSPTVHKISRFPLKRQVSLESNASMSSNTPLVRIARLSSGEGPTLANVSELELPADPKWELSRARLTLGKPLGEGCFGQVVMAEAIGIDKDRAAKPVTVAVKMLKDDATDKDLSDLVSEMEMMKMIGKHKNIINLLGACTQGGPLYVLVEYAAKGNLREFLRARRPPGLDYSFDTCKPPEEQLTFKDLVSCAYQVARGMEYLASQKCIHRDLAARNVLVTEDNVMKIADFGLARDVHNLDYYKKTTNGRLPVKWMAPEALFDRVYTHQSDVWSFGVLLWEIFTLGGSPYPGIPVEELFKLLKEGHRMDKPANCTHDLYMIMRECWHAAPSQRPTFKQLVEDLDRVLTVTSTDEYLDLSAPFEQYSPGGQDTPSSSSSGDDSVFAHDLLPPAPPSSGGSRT
T3 sequence (P22607 397-806 V555M): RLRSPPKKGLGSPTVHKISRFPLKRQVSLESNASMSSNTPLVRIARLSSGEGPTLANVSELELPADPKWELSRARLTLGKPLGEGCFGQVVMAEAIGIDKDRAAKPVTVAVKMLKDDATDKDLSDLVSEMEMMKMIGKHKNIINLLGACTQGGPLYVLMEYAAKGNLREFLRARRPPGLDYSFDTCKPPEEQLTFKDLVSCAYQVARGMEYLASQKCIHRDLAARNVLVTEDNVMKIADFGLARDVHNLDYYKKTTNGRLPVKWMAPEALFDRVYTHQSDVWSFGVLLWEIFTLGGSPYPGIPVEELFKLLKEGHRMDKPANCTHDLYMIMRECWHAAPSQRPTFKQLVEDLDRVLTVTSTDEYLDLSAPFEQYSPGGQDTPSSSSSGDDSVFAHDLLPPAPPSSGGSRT
T1 sequence (P22607 whole entry V555M, the tested form may be a part): as the sequence (P22607 whole entry, change not shown, the tested form may be a part) above, with V555M counted along it
T2 sequence (P22607 397-806): as the sequence (P22607 397-806 V555M) above, with M159V counted along it

Consider `COc1ccc2nc(-c3c(NC(C)c4ncccn4)c4nn(C)cc4[nH]c3=O)[nH]c2c1` (single isomer, unassigned) [Compound 1, (S*)-6-(6-Methoxy-1H-benzo[d]imidazol-2-yl)-2-methyl-7-((1-(pyrimidin-2-yl)ethyl)-amino)-2H-pyrazolo[4,3-b]pyridin-5(4H)-one], for which the values for the GI50 in assay [1] and in assay [4] were 4.07 nM and 4.72 nM, respectively. Moreover, the IC50 in assay [2] stood at 0.75 nM; in assay [3], 0.27 nM.
On the same counts, the results for `CCn1cc2[nH]c(=O)c(-c3nc4cc(OC)c(OC)cc4[nH]3)c(NC(C)c3cocn3)c2n1` (single isomer, unassigned) [Compound 5A, (S*)-6-(5,6-Dimethoxy-1H-benzo[d]imidazol-2-yl)-2-ethyl-7-((1-(oxazol-4-yl)ethyl)amino)-2H-pyrazolo[4,3-b]pyridin-5(4H)-one] are 50.4 nM, 33.6 nM, 7.67 nM and 1.56 nM.
For the compound `CCn1cc2[nH]c(=O)c(-c3nc4cc(OC)c(OC)cc4[nH]3)c(NC(C)c3cocn3)c2n1` (single isomer, unassigned) [Compound 5C, (R*)-6-(5,6-Dimethoxy-1H-benzo[d]imidazol-2-yl)-2-ethyl-7-((1-(oxazol-4-yl)ethyl)amino)-2H-pyrazolo[4,3-b]pyridin-5(4H)-one], the 50% inhibitory concentration (IC50) in assay [2] was determined as 978 nM; in assay [3], 315 nM.
Take `CC[C@H](Nc1c(-c2nc3ccc(OC)cc3[nH]2)c(=O)[nH]c2cn(C)nc12)c1ncccn1` (single isomer, unassigned) [Compound 16, (S*)-6-(6-Methoxy-1H-benzo[d]imidazol-2-yl)-2-methyl-7-((1-(pyrimidin-2-yl)propyl)amino)-2H-pyrazolo[4,3-b]pyridin-5(4, H)-one]: the half-maximal inhibitory concentration (IC50) in assay [2] is 1360 nM; in assay [3], 342 nM.
Turning to `CCn1cc2[nH]c(=O)c(-c3nc4ccc(OC)cc4[nH]3)c(N[C@H](C)c3cocn3)c2n1` (single isomer, unassigned) [Compound 34, (R*)-2-ethyl-6-(6-methoxy-H-benzo[d]imidazol-2-yl)-7-((1-(oxazol-4-yl)ethyl)amino)-2H-pyrazolo[4,3-b]pyridin-5(4H)-one], the IC50 in assay [2] is 39.5 nM; in assay [3] it was 32.8 nM.
As to `COCCOc1cc2[nH]c(-c3c(NC(c4ncccn4)C(C)C)c4nn(C)cc4[nH]c3=O)nc2cc1OC` (single isomer, unassigned) [Compound 36, (S*)-6(5-methoxy-6-(2-methoxyethoxy)-1H-benzo[d]imidazol-2-yl)-2-methyl-7-((2-methyl-1-(pyrimidin-2-yl)propyl)amino)-2H-pyrazolo[4,3-b]pyridin-5(4H)-one], the GI50 in assay [1] came out at 21.5 nM; in assay [4] it was 25 nM. In assay [2], the 50% inhibitory concentration (IC50) amounted to 7.75 nM.
Turning to `CCC(Nc1c(-c2nc3cc(OC)c(OC)cc3[nH]2)c(=O)[nH]c2cn(CC)nc12)c1ncccn1` (single isomer, unassigned) [Compound 45, (R*)-6-(5,6-dimethoxy-1H-benzo[d]imidazol-2-yl)-2-ethyl-7-((1-(pyrimidin-2-yl)propyl)amino)-2H-pyrazolo[4,3-b]pyridin-5(4H)-one], the results for the IC50 in assay [2] and in assay [3] were 602 nM and 347 nM, respectively.
For `C[C@H](Nc1c(-c2nc3ccc(F)cc3[nH]2)c(=O)[nH]c2cn(C)nc12)c1ncccn1` [Compound 28, (S)-6-(6-Fluoro-1H-benzo[d]imidazol-2-yl)-2-methyl-7-((1-(pyrimidin-2-yl)ethyl)amino)-2H-pyrazolo[4,3-b]pyridin-5(4H)-one], the GI50 in assay [1] came out at 13.3 nM; in assay [4], 73.8 nM. In addition, in assay [2], the concentration for half-maximal inhibition (IC50) was 7.14 nM.
Take `CCn1cc2[nH]c(=O)c(-c3nc4cc(OC)c(OC)cc4[nH]3)c(N[C@@H](C)c3ncccn3)c2n1` [Compound 37, (S)-6-(5,6-dimethoxy-1H-benzo[d]imidazol-2-yl)-2-ethyl-7-((1-(pyrimidin-2-yl)ethyl)amino)-2H-pyrazolo[4,3-b]pyridin-5(4H)-one]: the GI50 in assay [1] is 29.6 nM; in assay [4], 16.8 nM.
With `CCn1cc2[nH]c(=O)c(-c3nc4c(F)c(OC)c(OC)cc4[nH]3)c(N[C@@H](C)c3ncccn3)c2n1` [Compound 41, (S)-2-ethyl-6-(4-fluoro-5,6-dimethoxy-1H-benzo[d]imidazol-2-yl)-7-((1-(pyrimidin-2-yl)ethyl)amino)-2H-pyrazolo[4,3-b]pyridin-5(4H)-one], the GI50 in assay [1] stood at 55.6 nM; in assay [4] it was 46.5 nM.
For `CCOc1ccc2nc(-c3c(N[C@@H](C)c4ncccn4)c4nn(CC)cc4[nH]c3=O)[nH]c2c1` [Compound 50, (S)-6-(6-ethoxy-1H-benzo[d]imidazol-2-yl)-2-ethyl-7-((1-(pyrimidin-2-yl)ethyl)amino)-2,4-dihydro-5H-pyrazolo[4,3-b]pyridin-5-one] the same measures were 40.9 nM and 28.7 nM.
On the same counts, the results for `CCOc1cc2nc(-c3c(N[C@@H](C)c4ncccn4)c4nn(CC)cc4[nH]c3=O)[nH]c2cc1OCC` [Compound 52, (S)-6-(5,6-diethoxy-1H-benzo[d]imidazol-2-yl)-2-ethyl-7-((1-(pyrimidin-2-yl)ethyl)amino)-2H-pyrazolo[4,3-b]pyridin-5(4H)-one] are 18.8 nM and 16.1 nM.
For `CCOc1cc2nc(-c3c(N[C@@H](C)c4ncccn4)c4nn(C)cc4[nH]c3=O)[nH]c2cc1OCC` [Compound 53, (S)-6-(5,6-diethoxy-1H-benzo[d]imidazol-2-yl)-2-methyl-7-((1-(pyrimidin-2-yl)ethyl)amino)-2,4-dihydro-5H-pyrazolo[4,3-b]pyridin-5-one] the same measures were 4.15 nM and 3.19 nM.
On to `CCn1cc2[nH]c(=O)c(-c3nc4ccc(OCCOC)cc4[nH]3)c(N[C@@H](C)c3ncccn3)c2n1` [Compound 54, (S)-2-ethyl-6-(6-(2-methoxyethoxy)-1H-benzo[d]imidazol-2-yl)-7-((1-(pyrimidin-2-yl)ethyl)amino)-2H-pyrazolo[4,3-b]pyridin-5(4H)-one], for which the results for the GI50 in assay [1] and in assay [4] were 21.6 nM and 11.5 nM, respectively.
For `COc1cc2[nH]c(-c3c(N[C@@H](C)c4ncccn4)c4nn(C)cc4[nH]c3=O)nc2c(F)c1OC` [Compound 55, (S)-6-(4-fluoro-5,6-dimethoxy-1H-benzo[d]imidazol-2-yl)-2-methyl-7-((1-(pyrimidin-2-yl)ethyl)amino)-2H-pyrazolo[4,3-b]pyridin-5(4H)-one] the same measures were 11.8 nM and 17400 nM.
For `COc1cc2nc(-c3c(N[C@@H](C)c4ccccn4)c4nn(C)cc4[nH]c3=O)[nH]c2cc1OC` [Compound 56, (S)-6-(5,6-dimethoxy-1H-benzo[d]imidazol-2-yl)-2-methyl-7-((1-(pyridin-2-yl)ethyl)amino)-2H-pyrazolo[4,3-b]pyridin-5(4H)-one] the same measures were 13.1 nM and 18.4 nM.
